Values quoted from earlier work in patent US20060280691A1 (University of Alberta, priority 2005, published 2006).
Values after ≈ are worked out from the molar mass of the structure shown.

What was measured:
[1] = tested on: Pseudomonas aeruginosa
[2] = tested on: Streptococcus pyogenes
[3] = tested on: Neisseria gonorrhoeae
[4] = tested on: Bacillus anthracis

Structure (SMILES): O=C(O)c1cn(C2CC2)c2cc(N3CCNCC3)c(F)cc2c1=O [Ciprofloxacin, ciprofloxacin]
- MIC90 [1]: 4 µg/mL (≈ 12.1 µM)
- MIC90 [2]: 1 µg/mL (≈ 3.02 µM)
- MIC90 [3]: 0.004 µg/mL (≈ 0.0121 µM)
- MIC [4]: 1.6 µg/mL (≈ 4.83 µM)
